Values of other authors as cited in patent publication US9861605B2, “Enriched injectable emulsion containing selected fatty acid triglycerides” (STABLE SOLUTIONS LLC, priority 2011, dated 2018).

Details: against water

CCCCCCCC/C=C\CCCCCCCC(=O)O [oleic acid]
interfacial tension: 15.6 dyne/cm

CCCCCCCC(=O)O [caprylic acid]
interfacial tension: approximately 8.2 dyne/cm
